Experimental data from paper PMC10101016, “The Photoactive Photosynthetic Reaction Center of a Rhodobacter sphaeroides Mutant Lacking 3-Vinyl (Bacterio)Chlorophyllide a Hydratase Contains 3-Vinyl Bacteriochlorophyll a” (Microbiology Spectrum, 2023).
Like-named read-outs stand apart in the source and are kept apart here.

Target: T1, reaction center (WT-RC, V-RC) (Cereibacter sphaeroides, UniProt Q3J1A5+Q3J1A6)
T1 construct: gene pufL

`C=Cc1c(C)c2cc3nc(c4c5[nH]c(cc6nc(cc1[nH]2)[C@H](C)[C@H]6CC)c(C)c5C(=O)[C@@H]4C(=O)OC)[C@@H](CCC(=O)OC/C=C(\C)CCC[C@H](C)CCC[C@H](C)CCCC(C)C)[C@@H]3C` [3V-Bpheo a] was tested, and the “pigment extraction and HPLC of purified RC, absorption spectrum” value (shortened to “pigment extraction and HPLC”) (V-RC from BFcfh-puhA, H-sites) was “The V-RC was estimated to contain four 3V-Bchl a molecules, two 3V-Bpheo a molecules”.
With `COC(C)(C)C/C=C/C(C)=C/C=C/C(C)=C/C=C/C(C)=C/C=C/C=C(C)/C=C/C=C(\C)CC/C=C(\C)CCC=C(C)C` [SE] the “pigment extraction and HPLC” value (WT-RC and V-RC, photoheterotrophically grown cells) was “except for the presence of spheroidene (SE), which reflects the culture conditions”.
For `COC(C)(C)C(=O)/C=C/C(C)=C/C=C/C(C)=C/C=C/C(C)=C/C=C/C=C(C)/C=C/C=C(\C)CC/C=C(\C)CCC=C(C)C` [SO], the “pigment extraction and HPLC” value (WT-RC and V-RC, semiaerobically grown cells) was “two Bpheo a molecules, and one spheroidenone (SO) molecule”.
